Results from ChEMBL document CHEMBL1124434, “2H-[1]benzopyrano[3,4-b]pyridines: synthesis and activity at central monoamine receptors” (J Med Chem, 1989).

How the values were obtained:
[1] = target: T1, 5-hydroxytryptamine receptor 1A (Rattus norvegicus, UniProt P19327); assay: (§1) Concentration necessary to achieve half maximal inhibition of [3H]8-Hydroxy-2-(di-n-propylamino)tetralin binding to 5-hydroxytryptamine 1A receptor at 1 uM
T1 sequence (P19327 whole entry): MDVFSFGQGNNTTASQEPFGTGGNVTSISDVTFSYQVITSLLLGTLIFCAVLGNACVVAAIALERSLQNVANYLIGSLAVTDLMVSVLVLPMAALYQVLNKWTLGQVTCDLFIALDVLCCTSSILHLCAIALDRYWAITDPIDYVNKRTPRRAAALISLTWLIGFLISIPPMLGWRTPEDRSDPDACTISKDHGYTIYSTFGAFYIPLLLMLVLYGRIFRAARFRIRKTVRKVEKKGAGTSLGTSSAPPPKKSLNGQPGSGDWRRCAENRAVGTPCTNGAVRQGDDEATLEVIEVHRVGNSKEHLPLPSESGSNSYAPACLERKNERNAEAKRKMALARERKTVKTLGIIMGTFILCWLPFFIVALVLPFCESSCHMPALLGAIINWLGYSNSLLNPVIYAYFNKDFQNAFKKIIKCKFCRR

[2] = target: 5-hydroxytryptamine receptor 1B (Rattus norvegicus) (UniProt P28564); assay: (§2) Concentration necessary to achieve half maximal inhibition of [125I]- Iodocyanopindolol binding to 5-hydroxytryptamine 1B receptor at 1 uM
Sequence of 5-hydroxytryptamine receptor 1B (Rattus norvegicus) (P28564 whole entry): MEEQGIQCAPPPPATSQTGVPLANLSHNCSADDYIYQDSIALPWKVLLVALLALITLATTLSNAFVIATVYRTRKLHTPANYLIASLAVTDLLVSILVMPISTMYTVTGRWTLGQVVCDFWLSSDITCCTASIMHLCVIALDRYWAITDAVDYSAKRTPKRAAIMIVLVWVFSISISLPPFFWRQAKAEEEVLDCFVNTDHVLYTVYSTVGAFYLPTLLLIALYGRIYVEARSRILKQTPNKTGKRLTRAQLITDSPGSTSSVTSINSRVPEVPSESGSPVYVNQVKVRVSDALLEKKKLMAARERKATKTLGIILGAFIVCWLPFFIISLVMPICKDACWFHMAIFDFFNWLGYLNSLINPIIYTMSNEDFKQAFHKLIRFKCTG

[3] = target: T2, Serotonin 2 (5-HT2) receptor (Rattus norvegicus, UniProt P30994+P08909+P14842); assay: Concentration necessary to achieve half maximal inhibition of [3H]-ketanserin binding to 5-hydroxytryptamine 2 receptor; format: protein assay
[4] = target: T3, Alpha-2A adrenergic receptor (Bos taurus, UniProt Q28838); assay: Concentration necessary to achieve half maximal inhibition of [3H]clonidine binding to alpha-2 adrenergic receptor at 1 uM
T3 sequence (Q28838 whole entry): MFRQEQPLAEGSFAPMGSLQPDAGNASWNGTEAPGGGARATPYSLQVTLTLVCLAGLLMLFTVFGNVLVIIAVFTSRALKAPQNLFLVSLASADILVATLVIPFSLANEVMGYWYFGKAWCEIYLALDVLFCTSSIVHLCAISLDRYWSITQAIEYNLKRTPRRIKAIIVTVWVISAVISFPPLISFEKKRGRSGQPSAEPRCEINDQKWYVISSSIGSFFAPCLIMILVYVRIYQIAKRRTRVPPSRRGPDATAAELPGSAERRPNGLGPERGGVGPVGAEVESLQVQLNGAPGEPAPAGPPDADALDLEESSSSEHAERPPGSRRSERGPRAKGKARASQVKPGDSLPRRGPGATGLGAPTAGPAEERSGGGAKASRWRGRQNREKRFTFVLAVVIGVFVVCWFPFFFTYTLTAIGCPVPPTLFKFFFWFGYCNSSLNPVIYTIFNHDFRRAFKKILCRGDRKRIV

Dopamine receptor [5] = target: T4, Dopamine receptor (Bos taurus, UniProt Q95136+P20288); assay: (§3) Concentration necessary to achieve half maximal inhibition of [3H](+)-[…]-6,7-dihydroxy-1,2,3,4-tetrahydronaphthalene binding to dopamine receptor at 1 uM; format: protein assay
Dopamine receptor [6] = target: T4, Dopamine receptor; assay: (§4) Concentration necessary to achieve half maximal inhibition of [3H]spiperone binding dopamine receptor at 1 uM; format: protein assay
[7] = target: T5, 5-hydroxytryptamine receptor 1A (Rattus norvegicus) (UniProt P19327); assay: as §1
T5 sequence (whole entry): T1 sequence (P19327 whole entry)

[8] = target: T6, Serotonin 2 (5-HT2) receptor (Rattus norvegicus) (UniProt P30994+P08909+P14842); assay: (§5) Concentration necessary to achieve half maximal inhibition of [3H]ketanserin binding to 5-hydroxytryptamine 2 receptor at 1 uM; format: protein assay
T6 sequence (P08909 whole entry, looked up): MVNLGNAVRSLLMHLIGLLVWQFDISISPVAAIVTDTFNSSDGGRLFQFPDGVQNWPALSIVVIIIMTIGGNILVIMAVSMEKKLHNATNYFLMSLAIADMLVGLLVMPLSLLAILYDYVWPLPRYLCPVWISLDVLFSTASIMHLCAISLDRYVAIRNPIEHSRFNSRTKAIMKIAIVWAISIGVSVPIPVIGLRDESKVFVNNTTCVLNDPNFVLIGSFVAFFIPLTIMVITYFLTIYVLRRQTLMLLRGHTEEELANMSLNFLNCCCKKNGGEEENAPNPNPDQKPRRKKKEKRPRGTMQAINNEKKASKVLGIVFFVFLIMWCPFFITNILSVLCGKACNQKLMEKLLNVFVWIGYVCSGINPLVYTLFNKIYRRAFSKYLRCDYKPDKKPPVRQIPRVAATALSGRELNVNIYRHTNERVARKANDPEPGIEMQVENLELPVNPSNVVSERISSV
T6 sequence (P14842 whole entry, looked up): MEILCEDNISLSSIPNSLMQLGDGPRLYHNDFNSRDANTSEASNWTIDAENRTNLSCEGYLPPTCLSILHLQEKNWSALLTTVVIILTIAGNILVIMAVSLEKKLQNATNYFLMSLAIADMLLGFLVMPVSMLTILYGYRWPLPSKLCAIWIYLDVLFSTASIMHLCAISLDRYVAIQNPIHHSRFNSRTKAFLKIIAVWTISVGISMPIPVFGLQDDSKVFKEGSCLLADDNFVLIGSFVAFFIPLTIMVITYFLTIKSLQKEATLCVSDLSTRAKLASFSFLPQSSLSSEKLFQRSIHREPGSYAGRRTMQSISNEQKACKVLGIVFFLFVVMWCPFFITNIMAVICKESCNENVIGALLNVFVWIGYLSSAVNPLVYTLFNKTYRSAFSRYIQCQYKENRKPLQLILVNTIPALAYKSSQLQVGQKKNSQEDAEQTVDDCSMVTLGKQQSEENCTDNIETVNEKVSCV
T6 sequence (P30994 whole entry, looked up): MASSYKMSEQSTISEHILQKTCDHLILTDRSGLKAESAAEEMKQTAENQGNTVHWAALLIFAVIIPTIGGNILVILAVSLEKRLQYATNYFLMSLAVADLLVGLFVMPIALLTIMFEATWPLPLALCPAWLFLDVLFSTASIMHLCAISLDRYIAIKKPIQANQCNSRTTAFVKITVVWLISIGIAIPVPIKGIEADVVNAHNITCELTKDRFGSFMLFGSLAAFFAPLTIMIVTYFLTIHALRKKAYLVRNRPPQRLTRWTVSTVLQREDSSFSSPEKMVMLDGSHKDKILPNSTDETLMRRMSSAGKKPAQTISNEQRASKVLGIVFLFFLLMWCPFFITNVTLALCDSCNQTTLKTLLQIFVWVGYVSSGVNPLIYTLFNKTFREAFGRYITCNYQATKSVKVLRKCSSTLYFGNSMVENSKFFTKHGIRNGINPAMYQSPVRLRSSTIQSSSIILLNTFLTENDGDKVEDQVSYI

[9] = target: T7, Alpha-2A adrenergic receptor (Bos taurus) (UniProt Q28838); assay: Concentration necessary to achieve half maximal inhibition of [3H]clonidine binding to alpha-2 adrenergic receptorat 1 uM
T7 sequence (whole entry): T3 sequence (Q28838 whole entry)

[10] = target: T8, Dopamine receptor (Bos taurus) (UniProt Q95136+P20288); assay: as §3; format: protein assay
[11] = target: T8, Dopamine receptor (Bos taurus); assay: as §4; format: protein assay
[12] = target: T2, Serotonin 2 (5-HT2) receptor; assay: (§6) Concentration necessary to achieve half maximal inhibition of [3H]ketanserin, binds to 5-hydroxytryptamine 2 receptor at 1 uM; format: protein assay
[13] = target: T2, Serotonin 2 (5-HT2) receptor; assay: as §5; format: protein assay
[14] = target: T6, Serotonin 2 (5-HT2) receptor (Rattus norvegicus); assay: as §6; format: protein assay
[15] = target: T9, 5-hydroxytryptamine receptor 1B (Rattus norvegicus, UniProt P28564); assay: as §2
T9 sequence (P28564 whole entry): as the sequence (P28564 whole entry) above

[16] = target: T9, 5-hydroxytryptamine receptor 1B; assay: Concentration necessary to achieve half maximal inhibition of [125I]- Iodocyanopindolol, binds to 5-hydroxytryptamine 1B receptor at 1 uM
[17] = target: T3, Alpha-2A adrenergic receptor
Description: Concentration necessary to achieve half maximal inhibition of [3H]clonidine binding to Alpha-2 adrenergic receptor at 1 uM

| Compound | IC50 [1] [nM] | Change [2] [%] | IC50 [4] [nM] | IC50 (Dopamine receptor [5]) [nM] | IC50 (Dopamine receptor [6]) [nM] | Change [8] [%] | Change [10] [%] | Change [11] [%] | IC50 [13] [nM] | other results |
| --- | --- | --- | --- | --- | --- | --- | --- | --- | --- | --- |
| Cc1ccc(O)c2c1[C@H]1CCCN(C)[C@@H]1CO2 | 76 | -10 | 1020 | 26 | 170 |  |  |  |  | IC50 [3]: 97 nM |
| CCCN1CCC=C2c3cccc(O)c3OCC21 (stereo unspecified) |  | -1 |  |  |  | -14 | -10 | -17 |  | Change [7]: -36%; Change [9]: -34% |
| CN1CCC[C@@H]2c3cc(O)ccc3OC[C@H]21 |  | 6 |  | 114 | 4080 | -27 |  |  |  | Change [7]: -13%; Change [9]: -64% |
| CCCN1CCC=C2c3cc(O)ccc3OCC21 (stereo unspecified) | 244 | 0 | 634 | 51 | 4190 | -14 |  |  |  |  |
| CCCN1CCC[C@@H]2c3cc(O)ccc3OC[C@H]21 | 1210 | -1 | 559 | 9 | 1260 | -30 |  |  |  |  |
| CCCN1CCC[C@@H]2c3c(OC)cc(C)cc3OC[C@H]21 | 186 | -31 | 504 |  |  |  | -15 | -36 |  | IC50 [12]: 86 nM |
| CN(C)CCCSc1ccccc1NC(=O)/C=C/c1ccccc1 [CINANSERIN] |  |  |  |  |  |  |  |  | 2 |  |
| CCCN1CCC[C@@H]2c3c(O)cccc3OC[C@H]21 | 4 | -4 | 362 |  |  |  | -12 | -23 | 384 |  |
| CCCCN1CCC[C@@H]2c3cccc(O)c3OC[C@H]21 | 1200 | 0 | 39 | 8 | 260 |  |  |  |  | Change [14]: -40% |
| CCCN1CCC=C2c3ccccc3OCC21 (stereo unspecified) | 74 | -11 | 208 |  |  | -22 | -15 | -13 |  |  |
| COc1cc(C)cc2c1[C@H]1CCCN(C)[C@@H]1CO2 | 75 |  | 946 |  |  |  | -11 | -39 | 42 | IC50 [15]: 825 nM |
| CCCN1CCC[C@@H]2c3ccccc3OC[C@H]21 | 219 | -10 | 88 |  |  |  | -24 | -19 |  | IC50 [12]: 178 nM |
| CCCN1CCC=C2c3c(OC)cccc3OCC21 (stereo unspecified) | 1.8 |  | 151 |  |  |  | -13 | -36 |  | IC50 [16]: 1320 nM; IC50 [12]: 839 nM |
| CN1CCC=C2c3cc(O)ccc3OCC21 (stereo unspecified) |  | -6 |  | 20 |  | -32 |  |  |  | Change [7]: -42%; inhibition [11]: 3% |
| CCCN1CCC[C@@H]2c3c(OC)cccc3OC[C@H]21 | 9 | -19 | 71 |  |  |  | -9 | -53 | 114 |  |
| CCCN1CCC[C@@H]2c3ccc(O)cc3OC[C@H]21 |  | -1 | 249 | 16 | 4830 | -14 |  |  |  | Change [7]: -17% |
| FC(F)(F)c1cccc(N2CCNCC2)c1 |  |  |  |  |  |  |  |  |  | IC50 [15]: 51 nM |
| COc1ccc(C)c2c1OC[C@@H]1[C@@H]2CCCN1C | 19 | -35 |  |  |  | -44 | -6 | -15 |  | Change [9]: -12% |
| CN1CCC[C@@H]2c3cccc(O)c3OC[C@H]21 |  | -2 |  | 11 |  |  |  | -46 | 1260 | Change [7]: -45%; Change [9]: -41% |
| Clc1cccc(Cl)c1N=C1NCCN1 [CLONIDINE] |  |  |  |  |  |  |  |  |  | IC50 [17]: 2 nM |
| CCCN1CCC[C@@H]2c3cccc(O)c3OC[C@H]21 | 1000 | -2 | 77 | 30 | 260 |  |  |  | 1100 |  |
| COc1cccc2c1OC[C@@H]1[C@@H]2CCCN1C | 253 |  |  |  |  |  | -23 | -22 | 920 | inhibition [2]: 7%; Change [9]: -24% |
